We go through 14 molecules from DBAASP.

Values after ≈ are worked out from the molar mass of the structure shown.

Holding throughout (experiment): ≥ marks a high value that may be exact or a test limit, other limits are often not marked, values filed in µg/mL are converted to µM
One experiment has as its system Salmonella typhimurium.
Experiment [1] concerns Pseudomonas aeruginosa ATCC 9027.
The test system of experiment [2] is Staphylococcus aureus ATCC 6538.
Experiment [3] relates to Staphylococcus epidermidis ATCC 12228.
Experiment [4] has as its system Escherichia coli ATCC 25922.
For experiment [5], the system named is Staphylococcus aureus ATCC 25923.
In experiment [6] the test system is Enterococcus faecalis ATCC 29212.
The test system of experiment [7] is Pseudomonas aeruginosa ATCC 27853.
The test system of experiment [8] is Acinetobacter baumannii ATCC 19606.
For experiment [9], the system named is Klebsiella pneumoniae ATCC 700603.
In experiment [10] the test system is Bacillus subtilis ATCC 23857.
The test system of another experiment is Klebsiella pneumoniae.
Experiment [11] has as its system Salmonella enterica subsp. enterica serovar Typhimurium ATCC 14028.

As a reminder, the MIC is the least concentration at which growth counts as inhibited. A low value points to greater potency.

On to `CC[C@H](C)[C@H](NC(=O)[C@@H](NC(=O)[C@@H]1CCCN1C(=O)[C@@H](NC(=O)[C@@H]1CCCN1C(=O)[C@H](CCCCN)NC(=O)[C@H](CCCCN)NC(=O)[C@H](CO)NC(=O)CN)C(C)C)[C@@H](C)CC)C(=O)N[C@@H](Cc1ccc(O)cc1)C(=O)N[C@@H](C)C(=O)N[C@@H](CC(N)=O)C(=O)N[C@@H](CCCN=C(N)N)C(=O)N[C@@H](CCCN=C(N)N)C(=O)N[C@H](C(=O)NCC(=O)N[C@@H](CCCCN)C(=O)N[C@@H](C)C(=O)N[C@@H](CCC(N)=O)C(=O)N[C@@H](CCCN=C(N)N)C(=O)N[C@@H](CCSC)C(=O)O)[C@@H](C)O` [GSKKPVPIIYANRRTGKAQRM], for which the MIC against Salmonella typhimurium was determined as 20.8 µM (≈ 49.3 µg/mL).
In the case of `CC[C@H](C)[C@H](NC(=O)[C@H](CCCCN)NC(=O)[C@H](CCCCN)NC(=O)[C@H](C)NC(=O)[C@H](CC(C)C)NC(=O)[C@H](CCCCN)NC(=O)[C@H](C)NC(=O)[C@H](CC(C)C)NC(=O)[C@H](CC(C)C)NC(=O)[C@H](CCCCN)NC(=O)[C@H](C)NC(=O)[C@@H](N)Cc1ccccc1)C(=O)N[C@@H](CC(C)C)C(N)=O` [FAKLLAKLAKKIL], the figures for the MIC in experiment [1] and in experiment [2] were 68.6 µM (≈ 99.9 µg/mL) and 6.86 µM (≈ 9.99 µg/mL), respectively.
Regarding `CC(C)C[C@H](NC(=O)[C@H](C)NC(=O)[C@H](CCCCN)NC(=O)[C@H](CCCCN)NC(=O)[C@H](C)NC(=O)[C@H](CC(C)C)NC(=O)[C@H](CCCCN)NC(=O)[C@H](CCCCN)NC(=O)[C@H](CC(C)C)NC(=O)[C@H](CCCCN)NC(=O)[C@H](CCCCN)NC(=O)[C@H](C)NC(=O)[C@H](CC(C)C)NC(=O)[C@H](CCCCN)NC(=O)[C@H](CCCCN)NC(=O)[C@H](CC(C)C)NC(=O)[C@H](C)NC(=O)[C@H](CCCCN)NC(=O)[C@H](CC(C)C)NC(=O)[C@H](C)NC(=O)[C@H](CC(C)C)NC(=O)[C@H](C)NC(=O)[C@@H](N)Cc1ccccc1)C(N)=O` [FALALKALKKLAKKLKKLAKKAL], the figures for the MIC in experiment [1] and in experiment [2] were 1.97 µM (≈ 5 µg/mL) and 3.94 µM (≈ 10 µg/mL), respectively.
`CC(C)C[C@H](NC(=O)[C@H](C)NC(=O)[C@H](CC(C)C)NC(=O)[C@H](CCCCN)NC(=O)[C@H](C)NC(=O)[C@H](CC(C)C)NC(=O)[C@H](CCCCN)NC(=O)[C@H](CCCCN)NC(=O)[C@H](CC(C)C)NC(=O)[C@H](CCCCN)NC(=O)[C@H](CCCCN)NC(=O)[C@H](C)NC(=O)[C@H](CC(C)C)NC(=O)[C@H](CCCCN)NC(=O)[C@H](CCCCN)NC(=O)[C@H](C)NC(=O)[C@@H](N)Cc1ccccc1)C(=O)N[C@@H](C)C(=O)N[C@@H](CCCCN)C(N)=O` [FAKKLAKKLKKLAKLALAK]: the minimal inhibitory concentration (MIC) in experiment [1] and in experiment [2] was 4.74 µM (≈ 10 µg/mL) each time.
Take `CC[C@H](C)[C@H](NC(=O)[C@H](CCCN=C(N)N)NC(=O)[C@H](CCCCN)NC(=O)[C@H](Cc1c[nH]c2ccccc12)NC(=O)[C@H](Cc1c[nH]c2ccccc12)NC(=O)CN)C(=O)N[C@@H](CCCCN)C(=O)N[C@H](C(=O)N[C@@H](Cc1c[nH]c2ccccc12)C(=O)N[C@@H](Cc1c[nH]c2ccccc12)C(N)=O)[C@@H](C)O` [GWWKRIKTWW]: the minimum inhibitory concentration (MIC) was found to be 8 µM (≈ 11.6 µg/mL) in experiment [3]; 8 µM (≈ 11.6 µg/mL) in [4]; 4 µM (≈ 5.78 µg/mL) in experiment [5]; 16 µM (≈ 23.1 µg/mL) in [6]; 4 µM (≈ 5.78 µg/mL) in experiment [7]; 8 µM (≈ 11.6 µg/mL) in experiment [8]. For the same molecule, the MIC in experiment [9] and in experiment [10] was 8 µM (≈ 11.6 µg/mL) in each case.
`CC(C)C[C@H](NC(=O)[C@H](C)NC(=O)[C@H](CC(C)C)NC(=O)[C@H](C)NC(=O)[C@H](CCCCN)NC(=O)[C@H](CCCCN)NC(=O)[C@H](C)NC(=O)[C@H](CC(C)C)NC(=O)[C@H](CCCCN)NC(=O)[C@H](C)NC(=O)[C@H](CC(C)C)NC(=O)[C@H](CCCCN)NC(=O)[C@H](CCCCN)NC(=O)[C@H](C)NC(=O)[C@@H](N)Cc1ccccc1)C(N)=O` [FAKKLAKLAKKALAL]: the minimum inhibitory concentration (MIC) in [1] turned out to be 15.5 µM (≈ 25 µg/mL); in [2], 62 µM (≈ 99.9 µg/mL).
Take `CC[C@H](C)[C@H](NC(=O)CN)C(=O)N[C@@H](CCCN=C(N)N)C(=O)N[C@@H](Cc1c[nH]c2ccccc12)C(=O)N[C@@H](CCCCN)C(=O)N[C@@H](Cc1ccccc1)C(=O)N[C@@H](Cc1c[nH]c2ccccc12)C(=O)N[C@@H](CCCCN)C(=O)N[C@@H](Cc1ccccc1)C(=O)N[C@H](C(N)=O)[C@@H](C)O` [GIRWKFWKFT]: the MIC in experiment [3] is 128 µM (≈ 175 µg/mL); in experiment [4] it was 32 µM (≈ 43.8 µg/mL); in [5], 32 µM (≈ 43.8 µg/mL); in experiment [6], 128 µM (≈ 175 µg/mL); in experiment [7] it was 16 µM (≈ 21.9 µg/mL); in experiment [8], 128 µM (≈ 175 µg/mL). Besides, the MIC in experiment [9] was 64 µM (≈ 87.5 µg/mL); in [10], at least 64 µM.
Regarding `CC[C@H](C)[C@H](NC(=O)CNC(=O)[C@@H](N)CS)C(=O)N[C@H](C(=O)N[C@@H](C)C(=O)NCC(=O)N[C@H](C(=O)N[C@H](C(=O)N[C@H](C(=O)N[C@@H](CCCCN)C(=O)N[C@H](C(=O)N[C@@H](CCCCN)C(=O)N[C@@H](CCCCN)C(=O)N[C@@H](CS)C(N)=O)[C@@H](C)CC)[C@@H](C)CC)[C@@H](C)CC)[C@@H](C)CC)[C@@H](C)CC` [CGIIAGIIIKIKKC], the MIC in [4] was above 128 µM; in experiment [10] it was at least 32 µM.
In the case of `CC[C@H](C)[C@H](NC(=O)[C@H](CCCCN)NC(=O)[C@H](CCCCN)NC(=O)[C@H](C)NC(=O)[C@@H](NC(=O)[C@H](C)NC(=O)[C@H](CC(C)C)NC(=O)[C@H](CC(C)C)NC(=O)[C@H](C)NC(=O)[C@H](CCCCN)NC(=O)[C@H](CC(C)C)NC(=O)[C@H](CC(N)=O)NC(=O)[C@H](C)N)C(C)C)C(=O)N[C@@H](CC(C)C)C(N)=O` [ANLKALLAVAKKIL], the MIC in [4] was 4 µM (≈ 5.86 µg/mL); in experiment [5], 32 µM (≈ 46.9 µg/mL); in experiment [1] it was 16 µM (≈ 23.4 µg/mL); in experiment [9], 16 µM (≈ 23.4 µg/mL); in experiment [10], 4 µM (≈ 5.86 µg/mL).
As to `CC[C@H](C)[C@H](NC(=O)[C@H](CCCN=C(N)N)NC(=O)[C@H](CCCN=C(N)N)NC(=O)[C@H](Cc1ccccc1)NC(=O)[C@H](Cc1ccccc1)NC(=O)CN)C(=O)N[C@@H](CCCCN)C(=O)N[C@H](C(=O)N[C@@H](Cc1ccccc1)C(=O)N[C@@H](Cc1ccccc1)C(N)=O)[C@@H](C)O` [GFFRRIKTFF], the minimal inhibitory concentration (MIC) in [3] is 64 µM (≈ 84.3 µg/mL); in experiment [4], 32 µM (≈ 42.2 µg/mL); in experiment [5], 16 µM (≈ 21.1 µg/mL); in experiment [6], 64 µM (≈ 84.3 µg/mL); in [7], 8 µM (≈ 10.5 µg/mL); in experiment [8] it was 64 µM (≈ 84.3 µg/mL). Moreover, the minimal inhibitory concentration (MIC) in [9] is 32 µM (≈ 42.2 µg/mL); in experiment [10] it was 16 µM (≈ 21.1 µg/mL).
As for `CC[C@H](C)[C@H](NC(=O)[C@H](CCCCN)NC(=O)[C@H](CCCCN)NC(=O)[C@H](C)NC(=O)[C@@H](NC(=O)[C@H](C)NC(=O)[C@H](C)NC(=O)[C@H](CC(C)C)NC(=O)[C@H](CCCCN)NC(=O)[C@H](CCCCN)NC(=O)[C@H](CC(C)C)NC(=O)[C@H](CC(N)=O)NC(=O)[C@@H](N)CC(C)C)C(C)C)C(=O)N[C@@H](CC(C)C)C(N)=O` [LNLKKLAAVAKKIL], the MIC was found to be 8 µM (≈ 12.2 µg/mL) in [4]; 32 µM (≈ 48.7 µg/mL) in experiment [5]; 4 µM (≈ 6.09 µg/mL) in experiment [1]; 32 µM (≈ 48.7 µg/mL) in [9]; 4 µM (≈ 6.09 µg/mL) in experiment [10].
For the molecule `CC(C)C[C@H](NC(=O)CN)C(=O)N[C@@H](Cc1c[nH]c2ccccc12)C(=O)N[C@@H](CCCCN)C(=O)N[C@@H](CCCN=C(N)N)C(=O)N[C@@H](Cc1c[nH]c2ccccc12)C(=O)N[C@@H](CCCCN)C(=O)N[C@@H](CCCCN)C(=O)N[C@@H](Cc1ccccc1)C(=O)N[C@@H](Cc1c[nH]c2ccccc12)C(N)=O` [GLWKRWKKFW], the minimum inhibitory concentration (MIC) is 16 µM (≈ 22.9 µg/mL) in experiment [3]; 8 µM (≈ 11.5 µg/mL) in experiment [4]; 8 µM (≈ 11.5 µg/mL) in experiment [5]; 32 µM (≈ 45.9 µg/mL) in [6]; 4 µM (≈ 5.74 µg/mL) in experiment [7]; 16 µM (≈ 22.9 µg/mL) in experiment [8]. Moreover, the MIC in experiment [9] and in experiment [10] was 8 µM (≈ 11.5 µg/mL) in each case.
Consider `CC[C@H](C)[C@H](NC(=O)[C@H](Cc1ccc(O)cc1)NC(=O)[C@@H](NC(=O)[C@H](CCCN=C(N)N)NC(=O)[C@H](CC(N)=O)NC(=O)[C@H](CC(N)=O)NC(=O)CN)C(C)C)C(=O)N1CCC[C@H]1C(=O)N[C@@H](CCC(N)=O)C(=O)N1CCC[C@H]1C(=O)N[C@@H](CCCN=C(N)N)C(=O)N1CCC[C@H]1C(=O)N[C@@H](Cc1cnc[nH]1)C(=O)N1CCC[C@H]1C(=O)N[C@@H](CCCN=C(N)N)C(=O)N[C@@H](CC(C)C)C(=O)O` [GNNRVYIPQPRPHPRL], for which the minimum inhibitory concentration (MIC) (in the experiment with Klebsiella pneumoniae; in experiment [4]; in [11]) was above 128 µM throughout.
For `CC[C@H](C)[C@H](NC(=O)CN)C(=O)N[C@H](C(=O)N[C@@H](CCCCN)C(=O)NCC(=O)N[C@H](C(=O)N[C@H](C(=O)N[C@@H](CCCCN)C(=O)N[C@H](C(=O)N[C@H](C(=O)N[C@@H](CCCCN)C(=O)N[C@@H](C)C(N)=O)[C@@H](C)CC)[C@@H](C)CC)[C@@H](C)CC)[C@@H](C)CC)[C@@H](C)CC` [GIIKGIIKIIKA], the minimum inhibitory concentration (MIC) in experiment [4] turned out to be 128 µM (≈ 162 µg/mL); in [10] it was 4 µM (≈ 5.06 µg/mL).
